From US6943178B2 (Wyeth, priority 2001, dated 2005) come the findings set out here.

Structures can show the parent of a compound that is named as a salt. Where two headings read alike, the source gives them in different places.

One data set has as its target T1, serotonin transporter (Rattus norvegicus, UniProt P31652).
T1 construct: displace ^3H-paroxetine from male rat frontal cortical membranes; from tissue; host or cells: male rat frontal cortex membranes
The data set can be described thus: 3H-paroxetine displacement, serotonin transporter affinity. The data set is classed as binding.

Data set [1] has as its target T2, cloned human 5-HT1A receptors (Homo sapiens, UniProt P08908).
T2 construct: expressed in transfected cells
T2 sequence (P08908 1-422): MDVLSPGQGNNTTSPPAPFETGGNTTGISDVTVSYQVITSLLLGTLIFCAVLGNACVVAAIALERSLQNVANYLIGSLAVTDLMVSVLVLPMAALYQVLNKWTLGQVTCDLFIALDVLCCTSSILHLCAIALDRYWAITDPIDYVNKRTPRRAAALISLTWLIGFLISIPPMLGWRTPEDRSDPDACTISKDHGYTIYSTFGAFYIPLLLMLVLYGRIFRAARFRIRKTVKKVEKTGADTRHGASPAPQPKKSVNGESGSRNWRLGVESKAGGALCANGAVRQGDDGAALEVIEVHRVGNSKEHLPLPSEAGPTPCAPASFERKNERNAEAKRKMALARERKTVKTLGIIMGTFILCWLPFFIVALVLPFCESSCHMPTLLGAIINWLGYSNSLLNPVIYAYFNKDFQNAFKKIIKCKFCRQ
The data set is described as follows: 35S-GTPγS binding assay, 5-HT1A antagonist activity. It is filed as biochemical. The procedure: Antagonist activity at 5-HT1A receptors was established by using a ^35S-GTPγS binding assay similar to that used by Lazareno and Birdsall (Br. J. Pharmacol. 109: 1120, 1993), in which the test compound's ability to affect the binding of ^35S-GTPγS to membranes containing cloned human 5-HT1A receptors was determined. Agonists produce an increase in binding whereas antagonists produce no increase but rather reverse the effects of the standard agonist 8-OHDPAT. The test compound's maximum inhibitory effect is represented as the Imax, while its potency is defined by the IC50.
In general terms: Binding of GTPγS marks nucleotide exchange on a G protein.

In the next data set the target is T3, human 5-HT1A receptors (Homo sapiens, UniProt P08908).
T3 construct: expressed in transfected cells; host or cells: CHO cells
T3 sequence (P08908 1-422): T2 sequence (P08908 1-422)
The data set is described as follows: [3H] 8-OHDPAT displacement, 5-HT1A receptor affinity. The data set is classed as binding. From the text: High affinity for the serotonin 5-HT1A receptor was established by testing the claimed compound's ability to displace [^3H] 8-OHDPAT (dipropylaminotetralin) from the 5-HT1A serotonin receptor following a modification of the procedure of Hall et al., J. Neurochem. 44, 1685 (1985) which utilizes CHO cells stably transfected with human 5-HT1A receptors.

Where [2] appears, read: 35S-GTPγS binding, reversal of the effects of the standard agonist 8-OHDPAT.
The mark [3] stands for this setting: 35S-GTPγS binding, reversal of the effects of the standard agonist 8-OHDPAT, read-out: 5-HT1A Function IC50.

T1 sequence (P31652 whole entry): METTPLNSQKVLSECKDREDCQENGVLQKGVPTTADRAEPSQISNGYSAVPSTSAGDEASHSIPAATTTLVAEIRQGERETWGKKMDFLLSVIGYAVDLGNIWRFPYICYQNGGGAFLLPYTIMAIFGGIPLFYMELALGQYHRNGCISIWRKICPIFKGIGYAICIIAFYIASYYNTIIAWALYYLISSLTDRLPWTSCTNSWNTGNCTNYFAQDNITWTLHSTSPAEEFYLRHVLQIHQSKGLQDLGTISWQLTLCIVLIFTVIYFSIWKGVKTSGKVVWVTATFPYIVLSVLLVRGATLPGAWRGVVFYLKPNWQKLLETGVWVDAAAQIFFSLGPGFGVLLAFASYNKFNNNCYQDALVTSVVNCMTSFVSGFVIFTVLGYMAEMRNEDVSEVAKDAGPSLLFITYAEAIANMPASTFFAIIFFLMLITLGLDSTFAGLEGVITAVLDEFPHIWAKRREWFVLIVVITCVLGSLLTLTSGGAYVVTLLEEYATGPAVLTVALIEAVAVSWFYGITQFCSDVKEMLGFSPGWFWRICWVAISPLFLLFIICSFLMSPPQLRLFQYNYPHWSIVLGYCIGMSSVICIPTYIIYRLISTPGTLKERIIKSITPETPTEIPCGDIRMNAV

The term melting point denotes the temperature of the solid-liquid transition. Regarding `O=c1ccoc2c3c(ccc12)OC(CN1CC=C(c2c[nH]c4ccc(F)cc24)CC1)CO3` (stereo not drawn) (as salt: fumarate) (hydrate or solvate) [Example 1, 3-[4-(5-Fluoro-1H-indol-3-yl)-3,6-dihydro-2H-pyridin-1-ylmethyl]-2,3-dihydro-7H-pyrano[2,3-f][1,4]benzodioxin-7-one], the melting point lay within 106 to 108 °C.
With `Fc1ccc2[nH]cc(C3=CCN(CC4COc5ccc6c(c5O4)OCCC6)CC3)c2c1` (stereo not drawn) (as salt: oxalate) [Example 2, 5-Fluoro-3-[1,2,3,6-tetrahydro-1-[(2,3,8,9-tetrahydro-7H-pyrano[2,3-f][1,4]benzodioxin-2-yl)methyl]-4-pyridinyl]-1H-indole], the melting point lay within 146 to 148 °C.
On the same count and under the same terms, to `C1=C(c2c[nH]c3ccccc23)CCN(CC2COc3ccc4c(c3O2)OCCC4)C1` (stereo not drawn) (as salt: oxalate) [Example 4, 3-{1-(2,3,8,9-Tetrahydro-7H-[1,4]dioxino[2,3-h]chromen-2-ylmethyl)-1,2,3,6-tetrahydropyridin-4-yl}-1H-indole] belongs 140 °C.
What is called Ki is a measure of affinity in units of concentration, obtained from inhibition or displacement. By IC50 is commonly meant the midpoint of a concentration-inhibition curve. Regarding `O=c1ccoc2c3c(ccc12)OC[C@H](CN1CC=C(c2c[nH]c4ccc(F)cc24)CC1)O3` [Example 1], the Ki on serotonin transporter was determined as 2.69 nM; on human 5-HT1A receptors it was 119 nM. Further, the IC50 in data set [1] is 2.37 nM. Further, the “5-HT1A Function Imax (maximum inhibitory effect)” value in data set [1] (setting [2]) is on record as 100.
For `Fc1ccc2[nH]cc(C3=CCN(CC4COc5ccc6c(c5O4)OCCC6)CC3)c2c1` (stereo not drawn) [Example 2, 5-Fluoro-3-[1,2,3,6-tetrahydro-1-[(2,3,8,9-tetrahydro-7H-pyrano[2,3-f][1,4]benzodioxin-2-yl)methyl]-4-pyridinyl]-1H-indole], the results for the Ki on serotonin transporter and on human 5-HT1A receptors were 2.57 nM and 27.6 nM, respectively. Besides, the “5-HT1A Function Imax (maximum inhibitory effect)” value in data set [1] (setting [2]) turned out to be 100. Further, in data set [1] (setting [3]), the IC50 was determined as 0.56 nM.
In turn, `O=C1CCOc2c1ccc1c2OC(CN2CC=C(c3c[nH]c4ccccc34)CC2)CO1` (stereo not drawn) [Example 3, 3-[4-(1H-indol-3-yl)-3,6-dihydro-2H-pyridin-1-ylmethyl]-2,3,6,7-tetrahydro-1,4,5-trioxa-phenanthren-8-one] returned a melting point of 210 °C. In addition, on serotonin transporter, the affinity corresponds to a Ki of 2.74 nM. Besides, the Ki at human 5-HT1A receptors (displacement of [3H] 8-OHDPAT, CHO cells stably transfected with human 5-HT1A receptors, read-out: 5-HT1A Receptor Affinity KI) came to 156 nM.
As for `C1=C(c2c[nH]c3ccccc23)CCN(CC2COc3ccc4c(c3O2)OCCC4)C1` (stereo not drawn) [Example 4, 3-{1-(2,3,8,9-Tetrahydro-7H-[1,4]dioxino[2,3-h]chromen-2-ylmethyl)-1,2,3,6-tetrahydropyridin-4-yl}-1H-indole], the Ki on serotonin transporter stood at 0.9 nM; on human 5-HT1A receptors, 44.1 nM. Also, the “5-HT1A Function Imax (maximum inhibitory effect)” value in data set [1] (setting [2]) is recorded as 87.0. Besides, the IC50 in data set [1] (setting [3]) was 0.38 nM.
